{"source": "patent US8674107B2", "about": "“Crystal of anti-bacterial compound” (priority 2010, dated 2014)", "format_in_all_cases": "physicochemical", "key": {"[1]": {"assay": "Evaluation of chemical stability (storage under dry-heat or wet-heat, HPLC)", "conditions": "2 weeks", "procedure": "Approximately 2 mg each of various samples prepared in Example 1 was weighed into an aluminum pan for thermal analysis and stored under dry-heat (60° C., 0% RH) or wet-heat (40° C., 75% RH) conditions. One and two weeks later, each sample was collected, and the change in weight was determined. Then, the whole amount was dissolved in 20 mL of an eluent and subjected to HPLC analysis."}, "[2]": {"assay": "Evaluation of solubility in test solutions (HPLC)", "conditions": "for Concentration: 37° C., total of 30 minutes", "procedure": "The monohydrochloride dihydrate prepared in Example 1 and the free form (anhydrous form) were used in the following evaluation of solubility: an appropriate amount of each sample was added to 2 mL each of the test solutions (water, the JP 1st fluid for the disintegration test (JP1), and the JP 2nd fluid for the disintegration test (JP2)), fasted state simulated intestinal fluid (FaSSIF), and fed state simulated intestinal fluid (FeSSIF), and incubated in a thermobath of 37° C. Each solution was shaken in a vortex mixer for 30 seconds every 5 minutes (for a total of 30 minutes). Then, the supernatant was filtered through a membrane filter (pore size: 0.45 μm). After appropriate dilution with an eluent, the diluted solution was subjected to HPLC analysis to calculate concentration.\nMeasurement conditions for HPLC;\nColumn: Waters Symmetry C18 3.5 um, 4.6×100 mm\nColumn temperature: 40° C.\nMobile phase: 50 mM KH2PO4-K2HPO4 (pH 7.0)/MeCN=8:2"}, "[3]": {"assay": "Evaluation of moisture absorption and desorption properties (microbalance)", "conditions": "25° C.; for moisture absorption and desorption patterns: 10-90% RH; for change in weight (moisture absorption and desorption properties): measurement range 10-90% RH", "procedure": "Of the various samples prepared in Example 1, the monohydrochloride dihydrate, monohydrochloride monohydrate, and sulfate were separately placed in quartz holders and examined for their moisture absorption and desorption behaviors using a microbalance under the following measurement conditions:\nMeasurement conditions for moisture absorption and desorption behavior (sample volume: approximately 10 mg, measurement range: 10-90% RH, measurement temperature: 25° C., variable: within 0.03%, varying length of time: 10 minutes, apparatus: atmospheric pressure-type automatic water vapor sorption instrument manufactured by VTI Corp.)"}, "[4]": {"conditions": "listed as monohydrochloride dihydrate of compound A, monohydrochloride dihydrate"}}, "note": "Structures can show the parent of a compound that is named as a salt."}
{"compound": "Cc1c(N2C[C@]3(N)CCC[C@]3(F)C2)c(F)cc2c(=O)c(C(=O)O)cn([C@@H]3C[C@@H]3F)c12", "note": "[Free form (anhydride), 7-[(1R,5S)-1-amino-5-fluoro-3-azabicyclo[3.3.0]octan-3-yl]-6-fluoro-1-[(1R,2S)-2-fluorocyclopropan-1-yl]-1,4-dihydro-8-methyl-4-oxoquinoline-3-carboxylic acid]", "values": [{"measurement": "Increase in related substances (%)", "setting": "[1]; 40° C./75% RH", "result": 0.01, "unit": "%"}, {"measurement": "Increase in related substances (%)", "setting": "[1]; 60° C./0% RH", "result": 0.01, "unit": "%"}, {"measurement": "Concentration", "setting": "[2]; Fasted state simulated intestinal fluid (FaSSIF)", "result": 319, "unit": "µg/mL"}, {"measurement": "Concentration", "setting": "[2]; JP 2nd fluid for dissolution test", "result": 352, "unit": "µg/mL"}, {"measurement": "Concentration", "setting": "[2]; Water", "result": 280, "unit": "µg/mL"}]}
{"compound": "Cc1c(N2C[C@]3(N)CCC[C@]3(F)C2)c(F)cc2c(=O)c(C(=O)O)cn([C@@H]3C[C@@H]3F)c12", "note": "[Monohydrochloride dihydrate, 7-[(1R,5S)-1-amino-5-fluoro-3-azabicyclo[3.3.0]octan-3-yl]-6-fluoro-1-[(1R,2S)-2-fluorocyclopropan-1-yl]-1,4-dihydro-8-methyl-4-oxoquinoline-3-carboxylic acid monohydrochloride dihydrate]", "values": [{"measurement": "Increase in related substances (%)", "setting": "[1]; 60° C./0% RH, listed as monohydrochloride dihydrate of compound A, monohydrochloride dihydrate", "result": 0.02, "unit": "%"}, {"measurement": "Increase in related substances (%)", "setting": "[1]; 60° C./0% RH, monohydrochloride dihydrate", "result": 0.02, "unit": "%"}, {"measurement": "moisture absorption and desorption patterns", "setting": "[3]; [4]", "result": "well consistent"}, {"measurement": "moisture absorption and desorption patterns", "setting": "[3]; monohydrochloride dihydrate", "result": "well consistent"}, {"measurement": "change in weight (moisture absorption and desorption properties)", "setting": "[3]; [4]", "result": "≤ 2", "unit": "%"}, {"measurement": "solubility at 30 min", "setting": "[2]; 37 °C, thermodynamic from solid, in each of water, JP 1st fluid, JP 2nd fluid, FaSSIF and FeSSIF", "result": "≥ 2000", "unit": "µg/mL"}, {"measurement": "Concentration", "setting": "[2]; Fasted state simulated intestinal fluid (FaSSIF), monohydrochloride dihydrate", "result": ">2000", "unit": "µg/mL"}, {"measurement": "Concentration", "setting": "[2]; Fed state simulated intestinal fluid (FeSSIF)", "result": ">2000", "unit": "µg/mL"}, {"measurement": "Concentration", "setting": "[2]; JP 1st fluid for dissolution test", "result": ">2000", "unit": "µg/mL"}, {"measurement": "Concentration", "setting": "[2]; JP 2nd fluid for dissolution test, monohydrochloride dihydrate", "result": ">2000", "unit": "µg/mL"}, {"measurement": "Concentration", "setting": "[2]; Water, monohydrochloride dihydrate", "result": ">2000", "unit": "µg/mL"}]}
{"compound": "Cc1c(N2C[C@]3(N)CCC[C@]3(F)C2)c(F)cc2c(=O)c(C(=O)O)cn([C@@H]3C[C@@H]3F)c12", "note": "[monohydrochloride monohydrate]", "values": [{"measurement": "moisture absorption and desorption patterns", "setting": "[3]; monohydrate", "result": "substantially the same"}, {"measurement": "change in weight (moisture absorption and desorption properties)", "setting": "[3]; monohydrate", "result": "≤ 1", "unit": "%"}]}
{"compound": "Cc1c(N2C[C@]3(N)CCC[C@]3(F)C2)c(F)cc2c(=O)c(C(=O)O)cn([C@@H]3C[C@@H]3F)c12", "note": "[sulfate of compound A]", "values": [{"measurement": "moisture absorption and desorption patterns", "setting": "[3]", "result": "well consistent"}, {"measurement": "change in weight (moisture absorption and desorption properties)", "setting": "[3]", "result": "≤ 2", "unit": "%"}, {"measurement": "change in weight (moisture absorption and desorption behaviors)", "setting": "[3]; relative humidity of 40% to 60%", "result": "≤ 2", "unit": "%"}]}
